Results as given in patent US20020103377A1, “Piperidinyloxy and pyrrolidinyloxy oxazolidinone antibacterials” (priority 1999, published 2002).
Converted amounts (≈) assume the structure as drawn.

Assays:
S. aureus = assay: MIC by microdilution broth method (NCCLS), S. aureus Broth; format: cell-based; settings: cation adjusted Mueller-Hinton broth, 35° C., 16-20 hours; for MIC: Staphylococcus aureus, read-out: MIC (μg/mL) S. aureus Broth
Procedure: (§1) Minimal inhibitory concentration (MIC) has been an indicator of in vitro antibacterial activity widely used in the art. The in vitro antimicrobial activity of the compounds was determined by the microdilution broth method following the test method from the National Committee for Laboratory Standards (NCCLS). This method is described in the NCCLS Document M7-A4, Vol. 17, No.2, “Methods for Dilution Antimicrobial Susceptibility Test for Bacteria that Grow Aerobically-Fourth Edition”, which is incorporated herein by reference.
(§2) In this method two-fold serial dilutions of drug in cation adjusted Mueller-Hinton broth are added to wells in microdilution trays. The test organisms are prepared by adjusting the turbidity of actively growing broth cultures so that the final concentration of test organism after it is added to the wells is approximately 5×10^4 CFU/well.
(§3) Following inoculation of the microdilution trays, the trays are incubated at 35° C. for 16-20 hours and then read. […] The amount of growth in the wells containing the test compound is compared with the amount of growth in the growth-control wells (no test compound) used in each tray. As set forth in Table 1, compounds of the present invention were tested against a variety of Gram positive and Gram negative pathogenic bacteria resulting in a range of activities, from 1 to ≧128 μg/mL depending on the organism tested.

MRSA OC 2878 = assay: MIC by microdilution broth method (NCCLS), MRSA OC 2878; format: cell-based, Staphylococcus aureus; settings: cation adjusted Mueller-Hinton broth, 35° C., 16-20 hours; for MIC: Staphylococcus aureus, MRSA, read-out: MIC (μg/mL) MRSA OC 2878
Procedure: as §1, §2, §3

E. faecium OC3312 = assay: MIC by microdilution broth method (NCCLS), E. faecium OC3312; format: cell-based; settings: cation adjusted Mueller-Hinton broth, 35° C., 16-20 hours; for MIC: Enterococcus faecium, OC3312, microdilution broth, read-out: MIC (μg/mL) E. faecium OC3312
Procedure: as §1, §2, §3

MIC (μg/mL) S. aureus Broth (S. aureus)	MIC (μg/mL) MRSA OC 2878 (MRSA OC 2878)	MIC (μg/mL) E. faecium OC3312 (E. faecium OC3312; microdilution broth)	MIC (S. aureus)	MIC (MRSA OC 2878)	MIC (E. faecium OC3312)	Structure (SMILES)
4 µg/mL (≈ 8.01 µM)	2 µg/mL (≈ 4 µM)	4 µg/mL (≈ 8.01 µM)				CC(=O)NC[C@H]1CN(c2ccc(OC3CCN(C(=O)COCc4ccccc4)CC3)c(F)c2)C(=O)O1 [Compound 3, (S)-N-[[3-[3-Fluoro-4-{N-(benzyloxyacetyl)piperidinyl-4-oxy}phenyl]-2-oxo-5-oxazolidinyl]methyl]acetamide]
			4 µg/mL (≈ 9.77 µM)	4 µg/mL (≈ 9.77 µM)	8 µg/mL (≈ 19.5 µM)	CC(=O)NC[C@H]1CN(c2ccc(OC3CCN(C(=O)CO)CC3)c(F)c2)C(=O)O1 [Compound 4, (S)-N-[[3-[3-Fluoro-4-{N-(α-hydroxyacetyl)piperidinyl-4-oxy}phenyl]-2-oxo-5-oxazolidinyl]methyl]acetamide]
			8 µg/mL (≈ 18.9 µM)	8 µg/mL (≈ 18.9 µM)	16 µg/mL (≈ 37.8 µM)	COCC(=O)N1CCC(Oc2ccc(N3C[C@H](CNC(C)=O)OC3=O)cc2F)CC1 [Compound 5, (S)-N-[[3-[3-Fluoro-4-{N-(methoxyacetyl)piperidinyl-4-oxy}phenyl]-2-oxo-5-oxazolidinyl]methyl]acetamide]
			8 µg/mL (≈ 20.3 µM)	8 µg/mL (≈ 20.3 µM)	16 µg/mL (≈ 40.7 µM)	CC(=O)NC[C@H]1CN(c2ccc(OC3CCN(C(C)=O)CC3)c(F)c2)C(=O)O1 [Compound 7, (S)-N-[[3-[3-Fluoro-4-{N-(acetyl)piperidinyl-4-oxy}phenyl]-2-oxo-5-oxazolidinyl]methyl]acetamide]
			8 µg/mL (≈ 19.5 µM)	4 µg/mL (≈ 9.77 µM)	8 µg/mL (≈ 19.5 µM)	COC(=O)N1CCC(Oc2ccc(N3C[C@H](CNC(C)=O)OC3=O)cc2F)CC1 [Compound 8, (S)-N-[[3-[3-fluoro-4-{N-(methoxycarbonyl)piperidinyl-4-oxy}phenyl]-2-oxo-5-oxazolidinyl]methyl]acetamide]
			8 µg/mL (≈ 16.5 µM)	8 µg/mL (≈ 16.5 µM)	16 µg/mL (≈ 33 µM)	COc1ccc(C(=O)N2CCC(Oc3ccc(N4C[C@H](CNC(C)=O)OC4=O)cc3F)CC2)cc1 [Compound 13, (S)-N-[[3-[3-Fluoro-4-{N-(4-methoxybenzoyl)piperidinyl-4-oxy}phenyl]-2-oxo-5-oxazolidinyl]methyl]acetamide]
			8 µg/mL (≈ 14.7 µM)	8 µg/mL (≈ 14.7 µM)	8 µg/mL (≈ 14.7 µM)	CC(=O)NC[C@H]1CN(c2ccc(OC3CCN(C(=O)CNC(=O)OCc4ccccc4)CC3)c(F)c2)C(=O)O1 [Compound 15]
			32 µg/mL (≈ 70.1 µM)	32 µg/mL (≈ 70.1 µM)	64 µg/mL (≈ 140 µM)	CC(=O)NC[C@H]1CN(c2ccc(OC3CCN(C(=O)c4ccncc4)CC3)c(F)c2)C(=O)O1 [Compound 21, (S)-N-[[3-[3-Fluoro-4-{N-(4-pyridoyl)piperidinyl-4-oxy}phenyl]-2-oxo-5-oxazolidinyl]methyl]acetamide]
			16 µg/mL (≈ 33.1 µM)	8 µg/mL (≈ 16.5 µM)	16 µg/mL (≈ 33.1 µM)	CC(=O)NC[C@H]1CN(c2ccc(OC3CCN(C(=O)CCc4ccccc4)CC3)c(F)c2)C(=O)O1 [Compound 28, (S)-N-[[3-[3-Fluoro-4-{N-(3-phenyl-propionyl)piperidinyl-4-oxy}phenyl]-2-oxo-5-oxazolidinyl]methyl]acetamide]
			16 µg/mL (≈ 40.9 µM)	16 µg/mL (≈ 40.9 µM)	32 µg/mL (≈ 81.8 µM)	CC(=O)NC[C@H]1CN(c2ccc(OC3CCN(C(=O)CO)CC3)cc2)C(=O)O1 [Compound 31, (S)-N-[[3-[4-{N-(α-Hydroxyacetyl)piperidinyl-4-oxy}phenyl]-2-oxo-5-oxazolidinyl]methyl]acetamide]
			16 µg/mL (≈ 42.6 µM)	8 µg/mL (≈ 21.3 µM)	32 µg/mL (≈ 85.2 µM)	CC(=O)NC[C@H]1CN(c2ccc(OC3CCN(C(C)=O)CC3)cc2)C(=O)O1 [Compound 32, (S)-N-[[3-[4-{N-(Acetyl)piperidinyl-4-oxy}phenyl]-2-oxo-5-oxazolidinyl]methyl]acetamide]
			16 µg/mL (≈ 38.9 µM)	16 µg/mL (≈ 38.9 µM)	32 µg/mL (≈ 77.8 µM)	CC(=O)NC[C@H]1CN(c2ccc(OC3CCN(S(C)(=O)=O)CC3)cc2)C(=O)O1 [Compound 33, (S)-N-[[3-[4-{N-(Methanesulfonyl)piperidinyl-4-oxy}phenyl]-2-oxo-5-oxazolidinyl]methyl]acetamide]
